This experiment has as its target T1, Oxysterols receptor LXR-beta (Homo sapiens) (UniProt P55055).
T1 sequence (whole entry): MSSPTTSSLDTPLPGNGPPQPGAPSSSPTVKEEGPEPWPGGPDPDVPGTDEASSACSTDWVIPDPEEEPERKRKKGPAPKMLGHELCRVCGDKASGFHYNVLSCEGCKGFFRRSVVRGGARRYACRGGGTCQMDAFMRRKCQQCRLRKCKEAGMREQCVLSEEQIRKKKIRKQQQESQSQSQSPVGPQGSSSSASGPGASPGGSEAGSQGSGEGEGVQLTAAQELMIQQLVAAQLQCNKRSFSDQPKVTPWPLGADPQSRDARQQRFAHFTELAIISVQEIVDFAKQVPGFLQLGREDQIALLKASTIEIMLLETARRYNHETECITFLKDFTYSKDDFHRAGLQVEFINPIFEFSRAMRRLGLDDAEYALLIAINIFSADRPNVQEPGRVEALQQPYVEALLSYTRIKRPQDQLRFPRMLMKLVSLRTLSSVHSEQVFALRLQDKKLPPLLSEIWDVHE
As to the kind of experiment: Binding affinity to human LXR-beta LBD by SPR-Biacore assay.

The source made the active and inactive calls. The calls are words filed in the database; no cut-off is given here.

Consider `CCOC(=O)c1c(O)cc(O)cc1O`, for which the result was Active.

Values taken from ChEMBL document CHEMBL2203118, “Ethyl 2,4,6-trihydroxybenzoate is an agonistic ligand for liver X receptor that induces cholesterol efflux from macrophages without affecting lipid accumulation in HepG2 cells” (Bioorg Med Chem Lett, 2012).
